# Results as given in patent publication US8580815B2, “Derivatives of azaindoles as inhibitors of protein kinases ABL and SRC” (Oribase Pharma, priority 2009, dated 2013).
# Read-outs that look alike come from different tables or passages of the source.
# How the values were obtained:
# Abl kinase (h) = Abl kinase (h) (Homo sapiens (Human), UniProt P00519); experiment: Cerep kinase profiling, HTRF assay, Abl kinase; assay type: biochemical
# Description: (§1) The inhibitory activity of the compounds of the chemical series on different protein kinases was evaluated by Cerep (Cerep Kinase Profiling Service; www.cerep.com). The kinases used in the tests in vitro are human recombinant proteins expressed in human cells, insect cells or in bacteria. […] The activity of the kinase was then detected by an HTRF assay. The HTRF assay (CisBio International) is based on fluorescence transfer, using Europium (Eu3+) cryptate and XL665 respectively as donor and acceptor. When the biotinylated or tagged substrate is phosphorylated by the kinase, it reacts with a cryptate-labelled phosphospecific antibody. Addition of Streptavidin-XL665, SA-XL665, (or anti-tag antibody XL665) leads to juxtaposition of the cryptate and of the fluorophore XL665, which is reflected in fluorescence resonance energy transfer (FRET). The intensity of FRET depends on the quantity of cryptate-labelled antibody bound to the substrate, which is proportional to the quantity of phosphorylated substrate (Mathis, G. Probing molecular interactions with homogeneous techniques based on rare earth cryptates and fluorescence energy transfer.
# Src kinase (h) = Src kinase (h) (Homo sapiens (Human), UniProt P12931); experiment: Cerep kinase profiling, HTRF assay, Src kinase; assay type: biochemical
# Description: as §1
# Abl WT = Abl WT (Homo sapiens (Human), UniProt P00519); experiment: Reaction Biology Corp. kinase assay, Abl WT; assay type: biochemical; conditions: compounds tested by Reaction Biology Corp.; for inhibition at 10 µM: read-out: % inhibition of kinase activity, Abl WT (category); for IC50: ATP at 10 μM, read-out: IC50 on kinase Abl WT (category)
# Description: (§2) 4 compounds were tested for their capacity to inhibit various mutated kinases AbI (American company, Reaction Biology Corp.).
# Abl T315I = Abl T315I (Homo sapiens (Human), UniProt P00519, T315I); experiment: Reaction Biology Corp. kinase assay, mutated Abl T315I; assay type: biochemical; conditions: Reaction Biology Corp.; for inhibition at 10 µM: read-out: % inhibition of kinase activity, Abl T315I (category); for IC50: ATP at 10 μM, read-out: IC50 on kinase Abl T315I (category)
# Description: as §2
# [1] = system: K562 cells expressing kinase Bcr-AbI; experiment: Inhibition of cellular proliferation (MTT), K562 cells; assay type: cell-based, human
# Description: Cellular tests were carried out at the Montpellier Cancer Research Centre. The inhibition of proliferation by our compounds was analysed on 2 cell lines (U937 and K562) by calculating the IC50, testing 6 concentrations in triplicate for each of the compounds and for each line.
# Cells in exponential phase were seeded in 96-well plates at a concentration of 10^4 cells/100 μL/well. The final concentrations of compound in the well in contact with the cells were 0.1; 0.3; 0.9; 3.3; 10; 30; 90 μM. […]
# Src kinase = Src kinase (Homo sapiens (Human), UniProt P12931); experiment: Reaction Biology Corp. kinase assay, Src; conditions: compounds tested by Reaction Biology Corp.; for IC50: IC50 on kinase Src (category), ATP at 10 μM; for inhibition at 10 µM: read-out: % inhibition of kinase activity, Src (category), 10 μM
# [2] = 10 μM, compounds tested by Cerep, read-out: % inhibition of kinase activity, Abl WT (category)
# [3] = Table 6, compound incubated at 10 μM, read-out: Percentage inhibition of kinase Abl
# [4] = Table 8, compound incubated at 10 μM, read-out: Percentage inhibition of kinase Abl
# [5] = 10 μM, compounds tested by Cerep, read-out: % inhibition of kinase activity, Src (category)
# [6] = compound incubated at 10 μM, read-out: Percentage inhibition of kinase c-Src
# [7] = Homo sapiens, K562, 24 h, 24 h incubation, read-out: IC50 at 24 h on K562 (category)
# [8] = Homo sapiens, K562, 72 h, read-out: IC50 at 72 h on K562 (category), 72 h incubation
# [9] = Homo sapiens, K562, incubation time not stated (24 h and/or 72 h), read-out: IC50 for the K562 Bcr-AbI kinase (category)
# Sequence of Src kinase (h) (P12931 whole entry, looked up): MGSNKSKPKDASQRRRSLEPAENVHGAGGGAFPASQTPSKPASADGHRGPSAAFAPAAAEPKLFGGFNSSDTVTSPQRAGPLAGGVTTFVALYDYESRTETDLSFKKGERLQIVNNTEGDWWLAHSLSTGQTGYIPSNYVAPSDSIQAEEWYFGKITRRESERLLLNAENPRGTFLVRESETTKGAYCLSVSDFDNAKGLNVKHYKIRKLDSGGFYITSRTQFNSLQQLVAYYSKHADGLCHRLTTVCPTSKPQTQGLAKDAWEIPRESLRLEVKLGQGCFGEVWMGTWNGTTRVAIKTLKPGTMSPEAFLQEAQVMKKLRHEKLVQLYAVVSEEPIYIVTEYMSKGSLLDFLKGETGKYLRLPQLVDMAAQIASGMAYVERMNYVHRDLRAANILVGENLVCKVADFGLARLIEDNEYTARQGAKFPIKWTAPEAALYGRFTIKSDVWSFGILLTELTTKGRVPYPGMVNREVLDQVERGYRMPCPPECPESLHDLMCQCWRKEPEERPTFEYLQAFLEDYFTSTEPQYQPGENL
# Sequence of Src kinase (P12931 whole entry, looked up): as above
Structure (SMILES),inhibition at 10 µM (Abl kinase (h); [2]),inhibition at 10 µM (Abl kinase (h); [3]),inhibition at 10 µM (Abl kinase (h); [4]),inhibition at 10 µM (Src kinase (h); [5]),inhibition at 10 µM (Src kinase (h); [6]),inhibition at 10 µM (Abl WT),IC50 (Abl WT),inhibition at 10 µM (Abl T315I),"IC50 [1, 7]","IC50 [1, 8]",IC50 (Src kinase),inhibition at 10 µM (Src kinase),"IC50 ([1]; incubation time not stated (24 h and/or 72 h), read-out: IC50 for the K562 Bcr-AbI kinase (category))","IC50 [1, 9]",IC50 (Abl T315I)
"COCc1cc2cc(NC(=O)c3ccccc3Br)cnc2[nH]1 [ND0021, 2-bromo-N-(2-(methoxymethyl)-1H-pyrrolo[2,3-b]pyridin-5-yl)benzamide]",> 50%,94%,94%,> 50%,59%,–,–,–,–,–,–,–,–,–,–
O=C(Nc1cnc2[nH]c(Cc3ccc[nH]3)cc2c1)c1ccccc1Br [ND0037],> 50%,97%,97%,> 50%,72%,–,–,–,–,–,–,–,–,–,–
"COC(=O)c1cc2cc(NC(=O)c3c(Cl)cccc3Cl)cnc2[nH]1 [ND0072, Methyl 5-(2,6-dichlorobenzamido)-1H-pyrrolo[2,3-b]pyridine-2-carboxylate]",–,–,–,–,–,> 50%,1 to 100 nM,< 10%,> 10000 nM,10 to 1000 nM,1 to 100 nM,> 50%,–,–,–
"COC(=O)c1cc2cc(NC(=O)c3ccccc3C)cnc2[nH]1 [ND0076, Methyl 5-(2-methylbenzamido)-1H-pyrrolo[2,3-b]pyridine-2-carboxylate]",–,–,–,–,–,> 50%,100 to 10000 nM,< 10%,1000 to 10000 nM,10 to 1000 nM,–,> 50%,–,10 nM,–
COC(=O)c1cc2cc(NC(=O)c3ccc4[nH]ccc4c3)cnc2[nH]1 [ND0082],–,–,–,–,–,> 50%,100 to 10000 nM,< 10%,–,–,–,< 10%,–,–,–
COC(=O)c1cc2cc(NC(=O)c3cc(C)n[nH]3)cnc2[nH]1 [ND0085],–,–,–,–,–,> 50%,100 to 10000 nM,< 10%,–,–,–,10 to 50%,–,–,–
COC(=O)c1cc2cc(NC(=O)c3cccc(S(=O)(=O)NCc4ccco4)c3)cnc2[nH]1 [ND0086],–,–,–,–,–,10 to 50%,–,< 10%,–,–,–,< 10%,–,–,–
COC(=O)c1cc2cc(NCc3c(Cl)cccc3Cl)cnc2[nH]1 [ND0087],–,–,–,–,–,> 50%,1 to 100 nM,10 to 50%,1000 to 10000 nM,10 to 1000 nM,1 to 100 nM,> 50%,–,10 nM,–
COC(=O)c1cc2cc(NCc3ccccc3OC)cnc2[nH]1 [ND0088],–,–,–,–,–,> 50%,100 to 10000 nM,< 10%,–,–,100 to 10000 nM,> 50%,–,–,–
COC(=O)c1cc2cc(NCc3c(C)cccc3Cl)cnc2[nH]1 [ND0089],–,–,–,–,–,> 50%,1 to 100 nM,< 10%,> 10000 nM,10 to 1000 nM,1 to 100 nM,> 50%,–,–,–
COC(=O)c1cc2cc(NCc3ccccc3C)cnc2[nH]1 [ND0090],–,–,–,–,–,> 50%,1 to 100 nM,10 to 50%,1000 to 10000 nM,10 to 1000 nM,1 to 100 nM,> 50%,–,10 nM,–
COC(=O)c1cc2cc(NCc3cccs3)cnc2[nH]1 [ND0093],–,–,–,–,–,> 50%,100 to 10000 nM,10 to 50%,–,–,100 to 10000 nM,> 50%,–,–,–
COC(=O)c1cc2cc(NCc3nccs3)cnc2[nH]1 [ND0094],–,–,–,–,–,> 50%,100 to 10000 nM,10 to 50%,–,–,100 to 10000 nM,> 50%,–,–,–
COC(=O)c1cc2cc(NCc3ncc[nH]3)cnc2[nH]1 [ND0095],–,–,–,–,–,10 to 50%,–,< 10%,–,–,–,10 to 50%,–,–,–
COC(=O)c1cc2cc(NCc3cc[nH]n3)cnc2[nH]1 [ND0098],–,–,–,–,–,> 50%,100 to 10000 nM,< 10%,–,–,100 to 10000 nM,> 50%,–,–,–
COC(=O)c1cc2cc(Nc3cccc(I)c3)cnc2[nH]1 [ND0103],–,–,–,–,–,10 to 50%,–,< 10%,–,–,–,10 to 50%,–,–,–
COC(=O)c1cc2cc(Nc3ccc(I)cc3)cnc2[nH]1 [ND0108],–,–,–,–,–,10 to 50%,–,10 to 50%,–,–,–,10 to 50%,–,–,–

# The next lines start with the values.
inhibition at 10 µM (Abl kinase (h); [2]),inhibition at 10 µM (Abl kinase (h); [3]),inhibition at 10 µM (Abl kinase (h); [4]),inhibition at 10 µM (Src kinase (h); [5]),inhibition at 10 µM (Src kinase (h); [6]),inhibition at 10 µM (Abl WT),IC50 (Abl WT),inhibition at 10 µM (Abl T315I),"IC50 [1, 7]","IC50 [1, 8]",IC50 (Src kinase),inhibition at 10 µM (Src kinase),"IC50 ([1]; incubation time not stated (24 h and/or 72 h), read-out: IC50 for the K562 Bcr-AbI kinase (category))","IC50 [1, 9]",IC50 (Abl T315I),Structure (SMILES)
–,–,–,–,–,–,1 to 100 nM,< 10%,> 10000 nM,10 to 1000 nM,1 to 100 nM,> 50%,> 10000 nM,–,–,"COC(=O)c1cc2cc(NC(=O)c3c(C)cccc3Cl)cnc2[nH]1 [ND0074, Methyl 5-(2-chloro-6-methylbenzamido)-1H-pyrrolo[2,3-b]pyridine-2-carboxylate]"
–,–,–,–,–,10 to 50%,–,< 10%,–,–,–,10 to 50%,–,–,–,"COC(=O)c1cc2cc(NC(=O)c3cccs3)cnc2[nH]1 [ND0079, Methyl 5-(thiophene-2-carboxamido)-1H-pyrrolo[2,3-b]pyridine-2-carboxylate]"
–,–,–,–,–,> 50%,100 to 10000 nM,< 10%,–,–,100 to 10000 nM,> 50%,–,–,–,COC(=O)c1cc2cc(NCc3ccccc3C(F)(F)F)cnc2[nH]1 [ND0091]
–,–,–,–,–,10 to 50%,–,< 10%,–,–,–,< 10%,–,–,–,COC(=O)c1cc2cc(NCc3ccccc3OC(F)(F)F)cnc2[nH]1 [ND0092]
–,–,–,–,–,> 50%,1 to 100 nM,> 50%,1000 to 10000 nM,10 to 1000 nM,100 to 10000 nM,> 50%,–,10 nM,0.1 to 10 µM,COC(=O)c1cc2cc(NCc3ccc4[nH]ccc4c3)cnc2[nH]1 [ND0096]
–,–,–,–,–,> 50%,–,< 10%,–,–,–,10 to 50%,–,–,–,COC(=O)c1cc2cc(NCc3ccc(S(N)(=O)=O)cc3)cnc2[nH]1 [ND0101]
–,–,–,–,–,> 50%,< 1 nM,10 to 50%,10 nM,< 10 nM,1 to 100 nM,> 50%,–,10 nM,–,"COC(=O)c1cc2cc(NC(=O)c3cc(NC(=O)c4ccc(CN5CCN(C)CC5)cc4)ccc3C)cnc2[nH]1 [ND0117, methyl 5-(5-(4-((4-methylpiperazin-1-yl)methyl)benzamido)-2-methylbenzamido)-1H-pyrrolo[2,3-b]pyridine-2-carboxylate]"
–,–,–,–,–,> 50%,< 1 nM,> 50%,1000 to 10000 nM,< 10 nM,< 1 nM,> 50%,–,–,0.1 to 10 µM,"COC(=O)c1cc2cc(NCc3cc(NC(=O)c4ccc(CN5CCN(C)CC5)cc4)ccc3C)cnc2[nH]1 [ND0118, methyl 5-(5-(4-((4-methylpiperazin-1-yl)methyl)benzamido)-2-methyl-benzylamino)-1H-pyrrolo[2,3-b]pyridine-2-carboxylate]"
–,–,–,–,–,> 50%,< 1 nM,> 50%,10 nM,< 10 nM,1 to 100 nM,> 50%,–,10 nM,0.1 to 10 µM,"COC(=O)c1cc2cc(NC(=O)c3cc(NC(=O)c4ccc(CN5CCC(N(C)C)C5)c(C(F)(F)F)c4)ccc3C)cnc2[nH]1 (stereo not shown) [ND0119, methyl 5-(5-(4-((3-(dimethylamino)pyrrolidin-1-yl)methyl)-3-(trifluoro-methyl)benzamido)-2-methylbenzamido)-1H-pyrrolo[2,3-b]pyridine-2-carboxylate]"
